Data as given in the supplement of paper PMC13380429.
± gives the standard deviation of the averaged measurements.

Columns and labels:
Conditions in all cases: 72 h
[1] = tested on: U2OS; experiment: cell viability relative to DMSO; higher = less toxic
[2] = tested on: HepG2; experiment: as above
[3] = tested on: Calu-3; experiment: as above
[4] = tested on: Vero E6; experiment: as above
[5] = tested on: Caco-2; experiment: as above
[6] = tested on: U2OS; experiment: relative viability EC50 (midpoint between 100% and the lowest measured viability); higher = less toxic
[7] = tested on: HepG2; experiment: as above
[8] = tested on: Calu-3; experiment: as above
[9] = tested on: Vero E6; experiment: as above
[10] = tested on: Caco-2; experiment: as above
[11] = tested on: U2OS; experiment: drug sensitivity score (DSS) for viability; higher = more toxic; extreme values may be limits of the assay
[12] = tested on: HepG2; experiment: as above
[13] = tested on: Calu-3; experiment: as above
[14] = tested on: Vero E6; experiment: as above
[15] = tested on: Caco-2; experiment: as above

Row | Structure (SMILES) | cell viability ([1]; 1 nM) [%] | cell viability ([1]; 10 nM) [%] | cell viability ([1]; 100 nM) [%] | cell viability ([1]; 1000 nM) [%] | cell viability ([1]; 10000 nM) [%] | cell viability ([2]; 1 nM) [%] | cell viability ([2]; 10 nM) [%] | cell viability ([2]; 100 nM) [%] | cell viability ([2]; 1000 nM) [%] | cell viability ([2]; 10000 nM) [%] | cell viability ([3]; 1 nM) [%] | cell viability ([3]; 10 nM) [%] | cell viability ([3]; 100 nM) [%] | cell viability ([3]; 1000 nM) [%] | cell viability ([3]; 10000 nM) [%] | cell viability ([4]; 1 nM) [%] | cell viability ([4]; 10 nM) [%] | cell viability ([4]; 100 nM) [%] | cell viability ([4]; 1000 nM) [%] | cell viability ([4]; 10000 nM) [%] | cell viability ([5]; 1 nM) [%] | cell viability ([5]; 10 nM) [%] | cell viability ([5]; 100 nM) [%] | cell viability ([5]; 1000 nM) [%] | cell viability ([5]; 10000 nM) [%] | relative viability EC50 [6] [µM] | relative viability EC50 [7] [µM] | relative viability EC50 [8] [µM] | relative viability EC50 [9] [µM] | relative viability EC50 [10] [µM] | drug sensitivity score [11] | drug sensitivity score [12] | drug sensitivity score [13] | drug sensitivity score [14] | drug sensitivity score [15]
1 | CCOC(=O)c1ncn2c1CN(C)C(=O)c1cc(F)ccc1-2 [flumazenil] | 99.2 | 103 | 97.3 | 103 | 97.8 | 97.8 | 95 | 97.8 | 90.7 | 95.6 | 89.2 | 87.6 | 87.1 | 90.8 | 87 | 102 | 97.2 | 100 | 95.4 | 98.8 | 95.2 | 99.6 | 99.1 | 102 | 105 | > 10 | > 10 | > 10 | > 10 | > 10 | 0 | 0 | 0 | 0 | 0
2 | C[C@H]1NCc2cc(-c3ccc4c(=O)c(C(=O)O)cn(C5CC5)c4c3OC(F)F)ccc21 [garenoxacin] | 102 | 96.3 | 99.2 | 98 | 99.7 | 95.2 | 97.4 | 92.3 | 109 | 99 | 107 | 92.3 | 105 | 106 | 104 | 85.3 | 97 | 85.4 | 91.7 | 104 | 96.1 | 91.2 | 102 | 95.9 | 98.6 | > 10 | > 10 | > 10 | > 10 | > 10 | 0 | 0 | 0 | 0 | 0
3 | COC(=O)C1=CO[C@@H](O)[C@@H]2C(CO)=CC[C@H]12 [genipin] | 93.8 | 94.3 | 99.7 | 92.8 | 100 | 87.6 | 105 | 103 | 106 | 113 | 88 | 92.8 | 83.6 | 85.1 | 87 | 90.1 | 101 | 95.7 | 99.5 | 106 | 91.6 | 96.1 | 102 | 96.8 | 88.5 | > 10 | > 10 | > 10 | > 10 | > 10 | 0 | 0 | 2.4 | 0 | 0.1
4 | CC[n+]1c(-c2ccccc2)c2cc(N)ccc2c2ccc(N)cc21 [homidium] | 97.1 | 96 | 98.4 | 87.8 | 39.2 | 107 | 101 | 88 | 64.5 | 35.7 | 103 | 98.9 | 93 | 97.7 | 26.4 | 92.8 | 100 | 90.5 | 94.5 | 85.3 | 95.9 | 93.2 | 87.2 | 55.4 | 4.5 | 1.74 | 0.679 | 2.94 | > 10 | 0.984 | 5.3 | 8.1 | 4.4 | 0.1 | 10.7
5 | CC(C)Cc1ccc(C(C)C(=O)O)cc1 (stereo not given) [ibuprofen] | 99.7 ± 3.4 | 103 ± 4.4 | 100.6 ± 0.96 | 102 ± 2.5 | 105 ± 2.5 | 110 ± 5.8 | 96.3 ± 1.8 | 104 ± 8.1 | 102 ± 5.4 | 108 ± 9.9 | 105 ± 5.7 | 98.9 ± 6.4 | 93 ± 1.3 | 94.6 ± 8.3 | 102 ± 7.8 | 96.9 ± 0.57 | 96.9 ± 2.5 | 94.95 ± 0.071 | 92.2 ± 2.9 | 104.25 ± 0.071 | 97.4 ± 5.4 | 98.1 ± 3.7 | 95.9 ± 2 | 103 ± 4.1 | 104 ± 3.2 | > 10 | > 10 | > 10 | > 10 | > 10 | 0 | 0 | 0 | 0 | 0
6 | O=C(NC1CCN(CCc2c[nH]c3ccccc23)CC1)c1ccccc1 [indoramin] | 95.3 | 99.3 | 97.5 | 104 | 100 | 100 | 92.9 | 105 | 98.9 | 95.9 | 90.4 | 92.8 | 103 | 101 | 107 | 96.7 | 94.4 | 98.7 | 99.7 | 102 | 89.4 | 98.2 | 101 | 101 | 99.5 | > 10 | > 10 | > 10 | > 10 | > 10 | 0 | 0 | 0 | 0 | 0
